55 compounds from ChEMBL document CHEMBL4152208, “Synthesis and structure-activity relationships of quinolinone and quinoline-based P2X7 receptor antagonists and their anti-sphere formation activities in glioblastoma cells” (Eur J Med Chem, 2018) can be followed below.

SMILES strings stand for the structures. Calls of active or inactive are those of the source. No cut-off for these calls is given here.

Common to all, as to type: cell-based
Data set [1] deals with T1, P2X purinoceptor 7 (Homo sapiens) (UniProt Q99572).
T1 sequence (whole entry): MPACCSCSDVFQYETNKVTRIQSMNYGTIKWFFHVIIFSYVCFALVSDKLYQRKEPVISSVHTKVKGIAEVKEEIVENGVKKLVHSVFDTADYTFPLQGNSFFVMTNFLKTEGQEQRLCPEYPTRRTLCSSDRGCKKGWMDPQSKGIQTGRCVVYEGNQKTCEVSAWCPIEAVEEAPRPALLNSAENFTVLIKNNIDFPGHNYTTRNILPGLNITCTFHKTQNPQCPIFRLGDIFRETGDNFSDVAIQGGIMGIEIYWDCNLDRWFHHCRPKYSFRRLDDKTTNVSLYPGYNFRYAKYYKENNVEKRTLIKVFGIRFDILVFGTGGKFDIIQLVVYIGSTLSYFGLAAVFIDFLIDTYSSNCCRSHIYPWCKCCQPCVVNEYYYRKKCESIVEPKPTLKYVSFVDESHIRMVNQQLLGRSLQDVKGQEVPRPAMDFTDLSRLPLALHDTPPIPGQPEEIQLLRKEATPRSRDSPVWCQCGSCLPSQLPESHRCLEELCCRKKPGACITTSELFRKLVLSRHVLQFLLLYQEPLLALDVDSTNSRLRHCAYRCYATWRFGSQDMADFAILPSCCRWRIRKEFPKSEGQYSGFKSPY
Kind of data set: Antagonist activity at human P2X7 receptor expressed in HEK293 cells assessed as inhibition of BzATP-induced EtBr uptake at 10 uM after 2 hrs by fluorescence assay relative to control.

Data set [2] deals with T2, P2X purinoceptor 7 (Homo sapiens, UniProt Q99572).
T2 sequence (Q99572 whole entry): T1 sequence (whole entry)
Kind of data set: Antagonist activity at human P2X7 receptor expressed in HEK293 cells assessed as inhibition of BzATP-induced EtBr uptake after 2 hrs by fluorescence assay relative to control.

For data set [3], the target named is T1, P2X purinoceptor 7 (Homo sapiens). Kind of data set: Antagonist activity at human P2X7 receptor expressed in HEK293 cells assessed as inhibition of BzATP-induced EtBr uptake at 1 uM after 2 hrs by fluorescence assay relative to control.
The target in data set [4] is T2, P2X purinoceptor 7. Kind of data set: Antagonist activity at P2X7 in LPS/IFN gamma differentiated human THP-1 cells assessed as inhibition of BzATP-induced IL-1beta release preincubated for 30 mins followed by BzATP stimulation for 30 mins by ELISA. (In general: ELISA stands for enzyme-linked immunosorbent assay.)
The nature of data set [5]: Cytotoxicity against HEK293 cells expressing human P2X7 receptor assessed as cell survival at 10 uM by MTT assay relative to control. As to conditions: read-out: Survival. In general terms: Tetrazolium dyes change colour on reduction, which living cells bring about.

On to `COc1ccc(Cn2c(=O)c(C(=O)NCCc3ccc(C)cc3)cc3c(NC(=O)Cc4ccccc4)cccc32)cc1`, for which the inhibition (in general, the share of the control response that was lost under treatment) in data set [1] is 13%.

Regarding `COC(=O)c1cc2c(NC(=O)CC3CCCCC3)cccc2n(Cc2ccc(OC)cc2)c1=O`, the IC50 (commonly the concentration that inhibits the measured activity by half) at P2X purinoceptor 7 [2] worked out at 875 nM. For the same compound, the inhibition amounted to 63% in data set [3] and 86% in data set [1].

Consider `COC(=O)c1cc2c(NC(=O)c3ccccc3)cccc2n(Cc2ccc(OC)cc2)c1=O`, for which the inhibition result in data set [1] is “inactive”.

For `COc1ccc(Cn2c(=O)c(C(=O)NCCc3ccccc3)cc3c(N)cccc32)cc1`, the inhibition result in data set [1] is “inactive”.

As to `COC(=O)c1cc2c(NC(=O)C34CC5CC(CC(C5)C3)C4)cccc2n(Cc2cccc(OC)c2)c1=O`, the figures for the inhibition in data set [3] and in data set [1] were 35% and 55%, respectively.

With `O=C(Nc1cccc2nc(Cl)ccc12)C12CC3CC(CC(C3)C1)C2`, the inhibition in data set [3] stood at 11%; in data set [1], 51%.

As for `O=C(CC1CCCCC1)Nc1cccc2nc(Cl)ccc12`, the IC50 on P2X purinoceptor 7 [4] turned out to be 335 nM; at P2X purinoceptor 7 [2] it was 385 nM. In addition, the inhibition in data set [3] is 90%; in data set [1], 95%. In data set [5], the viability at 10 µM was determined as 92%.

As for `COC(=O)c1cc2c(NC(=O)C34CC5CC(CC(C5)C3)C4)cccc2n(Cc2ccc(Cl)cc2)c1=O`, at P2X purinoceptor 7 [2], the IC50 was 723 nM. For the same compound, the inhibition in data set [3] came out at 78%; in data set [1], 88%.

For `COC(=O)c1cc2c(NC(=O)Cc3ccccc3)cccc2n(Cc2ccc(OC)cc2)c1=O`, the inhibition in data set [3] worked out at 24%; in data set [1] it was 43%.

As for `COc1ccc(Cn2c(=O)c(C(=O)NCCc3ccc(O)c(OC)c3)cc3c(N)cccc32)cc1`, the inhibition in data set [1] is 5%.

As for `COc1ccc(Cn2c(=O)c(C(=O)NCCc3ccc(Cl)cc3)cc3c(NC(=O)Cc4ccccc4)cccc32)cc1`, the inhibition entry in data set [1] was “inactive”.

Consider `COc1ccc(Cn2c(=O)c(C(=O)NCCc3ccc(C)cc3)cc3c(NC(=O)CCC4CCCC4)cccc32)cc1`, for which, in data set [1], the inhibition entry is “inactive”.

For the compound `COc1ccc(CC(=O)Nc2cccc3c2cc(C(=O)NCCc2ccccc2)c(=O)n3Cc2ccc(OC)cc2)cc1`, in data set [1], the inhibition is 8%.

As for `COc1ccc(CCNC(=O)c2cc3c(NC(=O)CCc4ccccc4)cccc3n(Cc3ccc(OC)cc3)c2=O)cc1`, the inhibition in data set [1] is 7%.

As for `COc1ccc(Cn2c(=O)c(C(=O)O)cc3c(NC(=O)C45CC6CC(CC(C6)C4)C5)cccc32)cc1`, the inhibition came to 2% in data set [3] and 41% in data set [1].

Take `COC(=O)c1cc2c(NC(=O)C34CC5CC(CC(C5)C3)C4)cccc2n(Cc2ccc(OC(F)(F)F)cc2)c1=O`: the figures for the inhibition in data set [3] and in data set [1] were 48% and 68%, respectively.

As for `COc1ccc(Cn2c(=O)c(C(=O)NCCc3ccc(C)cc3)cc3c(NC(=O)CCc4ccccc4)cccc32)cc1`, the inhibition entry in data set [1] is “inactive”.

With `CCCC(=O)Nc1cccc2c1cc(C(=O)NCCc1ccccc1)c(=O)n2Cc1ccc(OC)cc1`, in data set [1], the inhibition entry was “inactive”.

Take `COc1ccc(Cn2c(=O)c(C(=O)NCCc3ccc4c(c3)OCO4)cc3c(NC(=O)Cc4ccc(Cl)cc4)cccc32)cc1`: in data set [1], the inhibition result was “inactive”.

As for `COc1ccc(Cn2c(=O)c(C(=O)NCCc3ccc(C)cc3)cc3c(NC(=O)COc4ccc(Cl)cc4)cccc32)cc1`, in data set [1], the inhibition entry is “inactive”.

Turning to `COC(=O)c1cc2c(NC(=O)CC34CC5CC(CC(C5)C3)C4)cccc2n(Cc2ccc(OC)cc2)c1=O`, the IC50 at P2X purinoceptor 7 [2] was found to be 861 nM. For the same compound, the inhibition in data set [3] came out at 65%; in data set [1] it was 76%.

For `COC(=O)c1cc2c(NC(=O)C34CC5CC(CC(C5)C3)C4)cccc2n(Cc2ccc(Br)cc2)c1=O`, the IC50 on P2X purinoceptor 7 [2] was 810 nM. Also, the inhibition in data set [3] was 65%; in data set [1], 80%.

For `O=C(CC12CC3CC(CC(C3)C1)C2)Nc1cccc2nc(-c3ccccc3O)ccc12`, the results for the inhibition in data set [3] and in data set [1] were 41% and 69%, respectively.

As to `COc1ccc(CC(=O)Nc2cccc3c2cc(C(=O)NCCc2ccc(C)cc2)c(=O)n3Cc2ccc(OC)cc2)cc1`, in data set [1], the inhibition entry is “inactive”.

In the case of `COC(=O)c1cc2c(NC(=O)C34CC5CC(CC(C5)C3)C4)cccc2n(Cc2ccccc2)c1=O`, the inhibition entry in data set [1] is “inactive”.

With `COc1ccc(Cn2c(=O)c(C(=O)NCCc3ccc(C)cc3)cc3c(NC(=O)COc4cccc(Cl)c4)cccc32)cc1`, the inhibition result in data set [1] was “inactive”.

For `COc1ccc(Cn2c(=O)c(C(=O)N(C)C)cc3c(NC(=O)C45CC6CC(CC(C6)C4)C5)cccc32)cc1`, the inhibition was determined as 14% in data set [3] and 54% in data set [1].

Consider `CCc1ccc(CCNC(=O)c2cc3c(NC(=O)COc4ccc(Cl)cc4)cccc3n(Cc3ccc(OC)cc3)c2=O)cc1`, for which the inhibition entry in data set [1] was “inactive”.

With `COc1ccc(Cn2c(=O)c(C(=O)NCCCc3ccccc3)cc3c(N)cccc32)cc1`, the inhibition entry in data set [1] was “inactive”.

Turning to `COc1ccc(Cn2c(=O)c(C(=O)O)cc3c(N)cccc32)cc1`, in data set [1], the inhibition result is “inactive”.

In the case of `COC(=O)c1cc2c(NC(=O)C34CC5CC(CC(C5)C3)C4)cccc2n(Cc2ccc(C#N)cc2)c1=O`, the inhibition result in data set [1] was “inactive”.

For `COC(=O)c1cc2c(NC(=O)C3CCCCC3)cccc2n(Cc2ccc(OC)cc2)c1=O`, the IC50 on P2X purinoceptor 7 [2] turned out to be 810 nM. For the same compound, the inhibition stood at 67% in data set [3] and 88% in data set [1].

As to `COc1ccc(Cn2c(=O)c(C(=O)NCCCc3ccccc3)cc3c(NC(=O)Cc4ccccc4)cccc32)cc1`, in data set [1], the inhibition entry was “inactive”.

Consider `COC(=O)c1cc2c(NC(=O)CCC3CCCC3)cccc2n(Cc2ccc(OC)cc2)c1=O`, for which the inhibition in data set [3] was 15%; in data set [1], 45%.

As for `CCc1ccc(CCNC(=O)c2cc3c(N)cccc3n(Cc3ccc(OC)cc3)c2=O)cc1`, the inhibition result in data set [1] is “inactive”.

`COC(=O)c1cc2c(NC(=O)CC34CC5CC(CC(C5)C3)C4)cccc2nc1Cl`: the values for the inhibition in data set [3] and in data set [1] were 27% and 43%, respectively.

As for `COc1ccc(Cn2c(=O)c(C(=O)NCCc3ccc4c(c3)OCO4)cc3c(N)cccc32)cc1`, the inhibition entry in data set [1] was “inactive”.

For `CNC(=O)c1cc2c(NC(=O)C34CC5CC(CC(C5)C3)C4)cccc2n(Cc2ccc(OC)cc2)c1=O`, the values for the inhibition in data set [3] and in data set [1] were 6% and 42%, respectively.

As to `CCc1ccc(Cn2c(=O)c(C(=O)OC)cc3c(NC(=O)C45CC6CC(CC(C6)C4)C5)cccc32)cc1`, the inhibition in data set [3] is 28%; in data set [1] it was 38%.

For the compound `COc1ccc(Cn2c(=O)ccc3c(NC(=O)C45CC6CC(CC(C6)C4)C5)cccc32)cc1`, the values for the inhibition in data set [3] and in data set [1] were 29% and 43%, respectively.

With `COc1ccc(Cn2c(=O)c(C(=O)NCCCc3ccccc3)cc3c(NC(=O)Cc4ccc(Cl)cc4)cccc32)cc1`, the inhibition result in data set [1] was “inactive”.

Regarding `COc1ccc(Cn2c(=O)c(C(=O)NCCCc3ccccc3)cc3c(NC(=O)CCc4ccccc4)cccc32)cc1`, the inhibition entry in data set [1] was “inactive”.

Turning to `COC(=O)c1cc2c(NC(=O)C34CC5CC(CC(C5)C3)C4)cccc2n(Cc2ccc(C)cc2)c1=O`, the inhibition in data set [3] is 30%; in data set [1], 45%.

In the case of `O=C(CC12CC3CC(CC(C3)C1)C2)Nc1cccc2nc(-c3cccc(O)c3)ccc12`, the inhibition in data set [3] is 36%; in data set [1] it was 66%.

As to `COc1ccc(Cn2c(=O)c(C(=O)NCCc3ccc(Cl)cc3)cc3c(N)cccc32)cc1`, in data set [1], the inhibition result was “inactive”.

`COc1ccc(CCNC(=O)c2cc3c(NC(=O)COc4ccc(Cl)cc4)cccc3n(Cc3ccc(OC)cc3)c2=O)cc1`: the inhibition entry in data set [1] is “inactive”.

As for `COc1ccc(Cn2c(=O)c(C(=O)NCCc3ccccc3)cc3c(NC(=O)CCc4ccccc4)cccc32)cc1`, in data set [1], the inhibition entry was “inactive”.

As for `COC(=O)c1cc2c(NC(=O)C34CC5CC(CC(C5)C3)C4)cccc2nc1Cl`, the inhibition result in data set [3] is “inactive”. Also, the inhibition in data set [1] turned out to be 21%.

For `COC(=O)c1cc2c(NC(=O)CCC3CCCCC3)cccc2n(Cc2ccc(OC)cc2)c1=O`, the values for the inhibition in data set [3] and in data set [1] were 20% and 57%, respectively.

For the compound `COc1ccc(Cn2c(=O)c(C(=O)NCCc3ccc(Cl)cc3)cc3c(NC(=O)COc4cccc(Cl)c4)cccc32)cc1`, in data set [1], the inhibition result was “inactive”.

Take `CCCC(=O)Nc1cccc2c1cc(C(=O)NCCc1ccc(OC)cc1)c(=O)n2Cc1ccc(OC)cc1`: the inhibition result in data set [1] is “inactive”.

For the compound `COC(=O)c1cc2c(N)cccc2n(Cc2ccc(OC)cc2)c1=O`, in data set [1], the inhibition result is “inactive”.

On to `COC(=O)c1cc2c(NC(=O)CCc3ccccc3)cccc2n(Cc2ccc(OC)cc2)c1=O`, for which the inhibition was found to be 36% in data set [3] and 56% in data set [1].

Turning to `COc1ccc(Cn2c(=O)c(C(=O)NCCc3ccc(C)cc3)cc3c(N)cccc32)cc1`, in data set [1], the inhibition was determined as 4%.

`COc1ccc(Cn2c(=O)c(C(=O)OC(C)C)cc3c(NC(=O)C45CC6CC(CC(C6)C4)C5)cccc32)cc1`: the results for the inhibition in data set [3] and in data set [1] were 47% and 77%, respectively.
